What was measured:
Type in all cases: in vivo, Wistar rats
[1] = tested on: STZ-induced diabetic rats; assay: Study No 1: blood glucose in STZ-induced diabetic rats (HCQ with sitagliptin)
Method: (§1) In this experiment 48 Wistar rats weighing 130-150 g of either sex were divided randomly into 8 groups consisting of 6 rats each. The study drugs suspended in vehicle [0.1% w/v suspension of Tween 80 and carboxymethylcellulose (CMC) in water] were administered for orally for 21 days. Group 1 (normal vehicle control) consisted of normal rats that neither received streptozotocin nor any test drug; Group 2 served as streptozotocin induced diabetic control (Diabetes was induced in rats by single administration of streptozotocin (60 mg/kg/i.p) dissolved in 0.1 M-citrate buffer, pH 4.5). Forty-eight hours later, blood samples were collected and glucose levels were determined to confirm the development of diabetes.
Blood glucose level was measured in normal and experimental rats at 1st, 7th, 14th and 21st day of administration. For other biochemical parameters i.e. Insulin, HbA1c, Triglycerides, Total Cholesterol, HDL, SGOT, SGPT, Total Protein, Albumin, Creatinine and Urea Blood samples were collected 1 h after the last dose administration from 18 h fasted rats through the retro-orbital plexus under chloroform anesthesia and analyzed using autoanalyzer (Microlab 2000). Other parameters like body weight, food intake and water intake were evaluated weekly till day 21st.

[2] = tested on: STZ-induced diabetic rats; assay: Study No 1: biochemical parameters in STZ-induced diabetic rats; details: after 21 days
Method: as §1, with “diabetes. […] Group 3 was diabetic rats treated with dose equivalent to human therapeutic dose of sitagliptin (STG) (11 mg/kg); Group 4 was diabetic rats treated with dose equivalent to human therapeutic dose of Hydroxychloroquine (HCQ) (46 mg/kg), Group 5 was diabetic rats treated with combination of HCQ 46 mg/kg and STG11 mg/kg; […] For other biochemical parameters i.e. […] Other parameters like body weight, food intake and water intake were evaluated weekly till day 21st.” for “diabetes.”

[3] = tested on: STZ-induced diabetic rats; assay: Study No 1: body weight, food intake and water intake in STZ-induced diabetic rats; details: for AVERAGE WATER INTAKE: oral
Method: as §1, with “diabetes. […] Group 3 was diabetic rats treated with dose equivalent to human therapeutic dose of sitagliptin (STG) (11 mg/kg); Group 4 was diabetic rats treated with dose equivalent to human therapeutic dose of Hydroxychloroquine (HCQ) (46 mg/kg), Group 5 was diabetic rats treated with combination of HCQ 46 mg/kg and STG11 mg/kg; […] For other biochemical parameters i.e. […] Other parameters like body weight, food intake and water intake were evaluated weekly till day 21st.” for “diabetes.”

[4] = subtherapeutic dose: STG 5.5, HCQ 23, STG+HCQ 5.5+23 mg/kg/day oral
[5] = therapeutic dose: STG 11, HCQ 46, STG+HCQ 11+46 mg/kg/day oral

N[C@@H](CC(=O)N1CCn2c(nnc2C(F)(F)F)C1)Cc1cc(F)c(F)cc1F [STG, Sitagliptin]
Plasma glucose concentration ([1]; 1st day, subtherapeutic dose: STG 5.5, HCQ 23, STG+HCQ 5.5+23 mg/kg oral): 267.17 ± 12.83 mg/dL | Plasma glucose concentration ([1]; 1st day, therapeutic dose: STG 11, HCQ 46, STG+HCQ 11+46 mg/kg oral): 258.33 ± 11.57 mg/dL | Plasma glucose concentration ([1]; 7th day, subtherapeutic dose: STG 5.5, HCQ 23, STG+HCQ 5.5+23 mg/kg oral): 261.83 ± 11.58 mg/dL | Plasma glucose concentration ([1]; 7th day, therapeutic dose: STG 11, HCQ 46, STG+HCQ 11+46 mg/kg oral): 225.00 ± 12.63 mg/dL | Plasma glucose concentration ([1]; 14th day, subtherapeutic dose: STG 5.5, HCQ 23, STG+HCQ 5.5+23 mg/kg oral): 227.83 ± 13.95 mg/dL | Plasma glucose concentration ([1]; 14th day, therapeutic dose: STG 11, HCQ 46, STG+HCQ 11+46 mg/kg oral, 46 mg/kg): 206.17 ± 10.26 mg/dL | Plasma glucose concentration ([1]; 14th day, therapeutic dose: STG 11, HCQ 46, STG+HCQ 11+46 mg/kg oral, listed as sitagliptin, 46 mg/kg): significant improvement | Plasma glucose concentration ([1]; 21st day, subtherapeutic dose: STG 5.5, HCQ 23, STG+HCQ 5.5+23 mg/kg oral): 200.83 ± 4.71 mg/dL | Plasma glucose concentration ([1]; 21st day, therapeutic dose: STG 11, HCQ 46, STG+HCQ 11+46 mg/kg oral): 156.50 ± 12.85 mg/dL | Albumin [2, 4]: 2.20 g/dL | Creatinine [2, 4]: 1.76 | HDL-C [2, 4]: 23.92 mg/dL | HbA1c [2, 4]: 5.12 | Insulin (serum) [2, 4]: 4.43 | SGOT [2, 4]: 54.02 | SGPT [2, 4]: 54.64 | TC [2, 4]: 156.69 mg/dL | TG [2, 4]: 121.91 mg/dL | Total Protein [2, 4]: 4.15 g/dL | Urea [2, 4]: 45.05 mg/dL | Albumin [2, 5]: 2.63 g/dL | Creatinine [2, 5]: 1.63 | HDL-C [2, 5]: 26.04 mg/dL | HbA1c [2, 5]: 5.04 | Insulin (serum) [2, 5]: 6.11 | SGOT [2, 5]: 51.47 | SGPT [2, 5]: 55.47 | TC [2, 5]: 146.92 mg/dL | TG [2, 5]: 116.48 mg/dL | Total Protein [2, 5]: 4.83 g/dL | Urea [2, 5]: 23.57 mg/dL | AVERAGE WATER INTAKE ([3]; Day 1, Sub-The (subtherapeutic dose)): 28.33 mL | AVERAGE WATER INTAKE ([3]; Day 1, The (therapeutic dose)): 30.67 mL | Body Weight ([3]; Day 1, subtherapeutic dose: STG 5.5, HCQ 23, STG+HCQ 5.5+23 mg/kg oral): 145.83 ± 12.61 g | AVERAGE FOOD INTAKE ([3]; Day 1, subtherapeutic dose: STG 5.5, HCQ 23, combination 5.5+23 mg/kg oral): 11.50 g | Body Weight ([3]; Day 1, therapeutic dose: STG 11, HCQ 46, STG+HCQ 11+46 mg/kg oral): 137.83 ± 6.49 g | AVERAGE FOOD INTAKE ([3]; Day 1, therapeutic dose: STG 11, HCQ 46, combination 11+46 mg/kg oral): 12.17 g | AVERAGE WATER INTAKE ([3]; Day 7, Sub-The (subtherapeutic dose)): 27.17 mL | AVERAGE WATER INTAKE ([3]; Day 7, The (therapeutic dose)): 29.00 mL | Body Weight ([3]; Day 7, subtherapeutic dose: STG 5.5, HCQ 23, STG+HCQ 5.5+23 mg/kg oral): 147.83 ± 12.37 g | AVERAGE FOOD INTAKE ([3]; Day 7, subtherapeutic dose: STG 5.5, HCQ 23, combination 5.5+23 mg/kg oral): 11.83 g | Body Weight ([3]; Day 7, therapeutic dose: STG 11, HCQ 46, STG+HCQ 11+46 mg/kg oral): 142.67 ± 7.45 g | AVERAGE FOOD INTAKE ([3]; Day 7, therapeutic dose: STG 11, HCQ 46, combination 11+46 mg/kg oral): 10.67 g | AVERAGE WATER INTAKE ([3]; Day 14, Sub-The (subtherapeutic dose)): 26.67 mL | AVERAGE WATER INTAKE ([3]; Day 14, The (therapeutic dose)): 28.50 mL | Body Weight ([3]; Day 14, subtherapeutic dose: STG 5.5, HCQ 23, STG+HCQ 5.5+23 mg/kg oral): 150.50 ± 12.31 g | AVERAGE FOOD INTAKE ([3]; Day 14, subtherapeutic dose: STG 5.5, HCQ 23, combination 5.5+23 mg/kg oral): 10.83 g | Body Weight ([3]; Day 14, therapeutic dose: STG 11, HCQ 46, STG+HCQ 11+46 mg/kg oral): 149.00 ± 7.46 g | AVERAGE FOOD INTAKE ([3]; Day 14, therapeutic dose: STG 11, HCQ 46, combination 11+46 mg/kg oral): 9.83 g | AVERAGE WATER INTAKE ([3]; Day 21, Sub-The (subtherapeutic dose)): 27.00 mL | AVERAGE WATER INTAKE ([3]; Day 21, The (therapeutic dose)): 27.17 mL | AVERAGE FOOD INTAKE ([3]; Day 21, subtherapeutic dose: STG 5.5, HCQ 23, combination 5.5+23 mg/kg oral): 10.33 g | AVERAGE FOOD INTAKE ([3]; Day 21, therapeutic dose: STG 11, HCQ 46, combination 11+46 mg/kg oral): 8.83 g

Reference: patent US20140128402A1, “PHARMACEUTICAL COMBINATION” (IPCA Laboratories Limited, priority 2011, published 2014)
